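Compound exposure: 48 hours, 5 concentrations, 96-well plates. GI50 is the concentration that inhibits growth by half.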 Active and inactive are the calls of the source. No stated cut-off is given here; in the data, active = GI50 up to about 1.1 µM and inactive = higher.
Assays:
Test in all cases: NCI-60 cell line screen, 48 h
786-0 = system: 786-0
A549 = system: A549
BT-549 = system: BT-549
CAKI-1 = system: CAKI-1
CCRF-CEM = system: CCRF-CEM
COLO 205 = system: COLO 205
DU-145 = system: DU-145
EKVX = system: EKVX
HCC 2998 = system: HCC 2998
HCT-15 = system: HCT-15
HOP-62 = system: HOP-62
HOP-92 = system: HOP-92
HT-29 = system: HT-29
IGROV-1 = system: IGROV-1
KM12 = system: KM12
LOX IMVI = system: LOX IMVI
M14 = system: M14
MCF7 = system: MCF7
MDA-MB-231 = system: MDA-MB-231
MDA-MB-435 = system: MDA-MB-435
MDA-N = system: MDA-N
MOLT-4 = system: MOLT-4
Malme-3M = system: Malme-3M
NCI-H23 = system: NCI-H23
NCI/ADR-RES = system: NCI/ADR-RES
OVCAR-4 = system: OVCAR-4
OVCAR-5 = system: OVCAR-5
OVCAR-8 = system: OVCAR-8
PC-3 = system: PC-3
RPMI-8226 = system: RPMI-8226
SF-539 = system: SF-539
SK-MEL-28 = system: SK-MEL-28
SK-MEL-2 = system: SK-MEL-2
SK-MEL-5 = system: SK-MEL-5
SK-OV-3 = system: SK-OV-3
SN12C = system: SN12C
SNB-75 = system: SNB-75
SR = system: SR
SW-620 = system: SW-620
T47D = system: T47D
TK-10 = system: TK-10
U-251 = system: U-251
UACC-257 = system: UACC-257
UACC-62 = system: UACC-62
A498 = system: A498
ACHN = system: ACHN
HCT-116 = system: HCT-116
HL-60 = system: HL-60
Hs-578T = system: Hs-578T
K562 = system: K562
NCI-H226 = system: NCI-H226
NCI-H460 = system: NCI-H460
NCI-H522 = system: NCI-H522
OVCAR-3 = system: OVCAR-3
RXF 393 = system: RXF 393
SF-268 = system: SF-268
SF-295 = system: SF-295
SNB-19 = system: SNB-19
UO-31 = system: UO-31

Measured: GI50

CCOC(=O)CCCOc1cc(-c2ccccc2F)nc2cc3c(cc12)OCO3
3.29 µM: HCT-15
inactive: 786-0 > 100 µM | A549 > 100 µM | BT-549 19.9 µM | CAKI-1 > 100 µM | CCRF-CEM 30.8 µM | COLO 205 > 100 µM | DU-145 > 100 µM | EKVX 40.6 µM | HCC 2998 5.82 µM | HOP-62 > 100 µM | HOP-92 > 100 µM | HT-29 43.7 µM | IGROV-1 24.6 µM | KM12 61.9 µM | LOX IMVI > 100 µM | M14 53 µM | MCF7 > 100 µM | MDA-MB-231 > 100 µM | MDA-MB-435 53.6 µM | MDA-N 88.7 µM | MOLT-4 27.3 µM | Malme-3M 74.1 µM | NCI-H23 46.6 µM | NCI/ADR-RES 46.8 µM | OVCAR-4 3.71 µM | OVCAR-5 > 100 µM | OVCAR-8 > 100 µM | PC-3 29.6 µM | RPMI-8226 28.4 µM | SF-539 > 100 µM | SK-MEL-28 73.5 µM | SK-MEL-2 > 100 µM | SK-MEL-5 57.7 µM | SK-OV-3 > 100 µM | SN12C > 100 µM | SNB-75 40.9 µM | SR 32 µM | SW-620 > 100 µM | T47D 25.5 µM | TK-10 > 100 µM | U-251 95.9 µM | UACC-257 70.3 µM | UACC-62 84.9 µM

CN(C)CC(CN(C)C)c1ccccn1
> 100 µM: HCT-15
inactive: 786-0 > 100 µM | A498 > 100 µM | A549 > 100 µM | ACHN > 100 µM | BT-549 > 100 µM | CAKI-1 > 100 µM | CCRF-CEM > 100 µM | COLO 205 > 100 µM | EKVX > 100 µM | HCT-116 > 100 µM | HL-60 > 100 µM | HOP-62 > 100 µM | HOP-92 > 100 µM | HT-29 > 100 µM | Hs-578T > 100 µM | IGROV-1 > 100 µM | K562 > 100 µM | KM12 > 100 µM | LOX IMVI > 100 µM | M14 > 100 µM | MCF7 > 100 µM | MDA-MB-231 > 100 µM | MDA-MB-435 > 100 µM | MDA-N > 100 µM | MOLT-4 > 100 µM | Malme-3M > 100 µM | NCI-H226 > 100 µM | NCI-H23 > 100 µM | NCI-H460 > 100 µM | NCI-H522 > 100 µM | NCI/ADR-RES > 100 µM | OVCAR-3 > 100 µM | OVCAR-4 > 100 µM | OVCAR-5 > 100 µM | OVCAR-8 > 100 µM | PC-3 > 100 µM | RPMI-8226 > 100 µM | RXF 393 > 100 µM | SF-268 > 100 µM | SF-295 > 100 µM | SF-539 > 100 µM | SK-MEL-28 > 100 µM | SK-MEL-2 > 100 µM | SK-MEL-5 > 100 µM | SK-OV-3 > 100 µM | SN12C > 100 µM | SNB-19 > 100 µM | SR > 100 µM | SW-620 > 100 µM | TK-10 > 100 µM | U-251 > 100 µM | UACC-257 > 100 µM | UACC-62 > 100 µM | UO-31 > 100 µM

CCOC(=O)CCC(C(=O)OCC)n1nnc2ccc(Nc3c(C)[n+]([O-])c4cc(F)c(OCC)cc4[n+]3[O-])cc21 (stereo not given)
52.8 µM: HCT-15
inactive: 786-0 > 100 µM | A498 > 100 µM | A549 77.8 µM | ACHN 51.8 µM | BT-549 96.2 µM | CAKI-1 66.1 µM | CCRF-CEM 40 µM | COLO 205 28.2 µM | DU-145 58.9 µM | EKVX 44.7 µM | HCT-116 64.3 µM | HL-60 36.8 µM | HOP-62 > 100 µM | HOP-92 24.6 µM | HT-29 56.8 µM | Hs-578T > 100 µM | IGROV-1 48.1 µM | K562 41.4 µM | KM12 80.4 µM | LOX IMVI 32.7 µM | M14 62.4 µM | MCF7 22.5 µM | MDA-MB-435 42.9 µM | MDA-N 46.3 µM | MOLT-4 44.7 µM | Malme-3M 35.6 µM | NCI-H226 48.5 µM | NCI-H23 73.3 µM | NCI-H460 60.3 µM | NCI-H522 61.7 µM | NCI/ADR-RES 87.7 µM | OVCAR-3 25.4 µM | OVCAR-4 36.4 µM | OVCAR-5 > 100 µM | OVCAR-8 94.4 µM | PC-3 > 100 µM | RPMI-8226 21.5 µM | RXF 393 41.8 µM | SF-268 28 µM | SF-295 77.4 µM | SF-539 24.8 µM | SK-MEL-2 32.3 µM | SK-MEL-5 50.8 µM | SK-OV-3 > 100 µM | SN12C 45.4 µM | SNB-19 > 100 µM | SNB-75 79.4 µM | SR 36.5 µM | SW-620 > 100 µM | T47D 30.2 µM | TK-10 > 100 µM | U-251 63.8 µM | UACC-257 21.2 µM | UACC-62 20.1 µM | UO-31 54 µM

COc1cc(N2C(=O)C(=O)C3(CCCCC3)C2=O)cc(OC)c1OC
> 100 µM: HCT-15
inactive: 786-0 > 100 µM | A549 > 100 µM | ACHN > 100 µM | BT-549 > 100 µM | CAKI-1 > 100 µM | CCRF-CEM > 100 µM | COLO 205 > 100 µM | DU-145 > 100 µM | EKVX > 100 µM | HCC 2998 > 100 µM | HCT-116 > 100 µM | HL-60 > 100 µM | HOP-62 57.5 µM | HT-29 > 100 µM | K562 > 100 µM | KM12 > 100 µM | LOX IMVI > 100 µM | M14 > 100 µM | MCF7 > 100 µM | MDA-MB-435 > 100 µM | MDA-N > 100 µM | MOLT-4 > 100 µM | Malme-3M > 100 µM | NCI-H226 > 100 µM | NCI-H23 > 100 µM | NCI-H522 > 100 µM | NCI/ADR-RES > 100 µM | OVCAR-3 > 100 µM | OVCAR-4 > 100 µM | OVCAR-5 > 100 µM | OVCAR-8 > 100 µM | PC-3 > 100 µM | RPMI-8226 > 100 µM | RXF 393 > 100 µM | SF-268 > 100 µM | SF-295 > 100 µM | SF-539 > 100 µM | SK-MEL-28 > 100 µM | SK-MEL-2 > 100 µM | SK-MEL-5 > 100 µM | SK-OV-3 > 100 µM | SN12C > 100 µM | SNB-19 > 100 µM | SNB-75 > 100 µM | SR > 100 µM | SW-620 > 100 µM | T47D > 100 µM | TK-10 > 100 µM | U-251 > 100 µM | UACC-257 > 100 µM | UACC-62 > 100 µM | UO-31 73.3 µM

CC1=NOC(C)(O)/C1=N/O (stereo not given)
> 100 µM: HCT-15
inactive: 786-0 > 100 µM | A498 > 100 µM | A549 > 100 µM | ACHN > 100 µM | BT-549 > 100 µM | CAKI-1 > 100 µM | CCRF-CEM > 100 µM | COLO 205 > 100 µM | DU-145 > 100 µM | EKVX > 100 µM | HCC 2998 > 100 µM | HCT-116 > 100 µM | HL-60 > 100 µM | HOP-62 > 100 µM | HOP-92 > 100 µM | HT-29 > 100 µM | Hs-578T > 100 µM | IGROV-1 > 100 µM | K562 > 100 µM | KM12 > 100 µM | LOX IMVI > 100 µM | M14 > 100 µM | MCF7 > 100 µM | MDA-MB-231 > 100 µM | MDA-MB-435 > 100 µM | MOLT-4 > 100 µM | Malme-3M > 100 µM | NCI-H226 > 100 µM | NCI-H23 > 100 µM | NCI-H460 > 100 µM | NCI-H522 > 100 µM | NCI/ADR-RES > 100 µM | OVCAR-3 > 100 µM | OVCAR-4 > 100 µM | OVCAR-5 > 100 µM | OVCAR-8 > 100 µM | PC-3 > 100 µM | RPMI-8226 > 100 µM | RXF 393 > 100 µM | SF-268 > 100 µM | SF-295 > 100 µM | SF-539 > 100 µM | SK-MEL-28 > 100 µM | SK-MEL-2 > 100 µM | SK-MEL-5 > 100 µM | SK-OV-3 > 100 µM | SN12C > 100 µM | SNB-19 > 100 µM | SNB-75 > 100 µM | SW-620 > 100 µM | T47D > 100 µM | TK-10 > 100 µM | U-251 > 100 µM | UACC-257 > 100 µM | UACC-62 > 100 µM | UO-31 > 100 µM

— ChEMBL document CHEMBL1201862, “PubChem BioAssay data set” (2004)
